# Measured values taken from EP3132692A1, “Compositions comprising small molecular inhibitors suitable to inhibit and stimulate signaling pathways in a manner leading to prevention of muscle atrophy” (priority 2015, dated 2017).
# Legend:
# resistance trained men [1] = test: Strength measures: 1-repetition maximum (1-RM) bench press and squat, efficacy study; format: in vivo
# [2] = Body composition by dual energy x-ray absorptiometry (DEXA), efficacy study; format: in vivo, men
# Experimental: (§1) In the efficacy study, 18 resistance trained men with at least 5 years of experience in weight lifting voluntarily participated. Participants were divided in 3 equal groups; receiving placebo (hypromellose, 2 times a day), (-)-epicatechin ((EPI), 2x 150 mg a day) and (-)-epicatechin combined with hesperetin and myricetin ((E+H+M), 2x 150+100+50 mg a day). Maximally trained individuals were chosen as further muscle gains in such groups are usually minimal, even with dietary interventions. This is primarily explained due to a fact that such trained individuals reached so called "natural genetic plateau" where muscle tissue works within physiological optimum defined by the genetic blueprints, so even radical interventions (except anabolic steroids) and exercise regime cannot bring significant results. This was confirmed by participants as they had no means to achieve particularly better results over last few years of exercise. All subjects were asked to maintain the same caloric intake during 12 week study 5 days a week exercise. During 2 months study participants were taking 30 g of post exercise amino acid blend (whey, soy and casein protein) with following profile per 100 g: • Alanine 7.1g, arginine 9.2 g, aspartic acid 6.2 g, glutamic acid 21.5 g, glycine 12.2 g, histidine 1.1 g, isoleucine 6.9 g, leucine 11.1 g, methionine 0.3 g, phenylalanine 2.7 g, proline 11.2 g, serine 2.7 g, threonine 1.5 g, tyrosine 0.5 g and valine 5.8 g.
# (§2) Body composition was examined at the beginning and the end of study using dual energy x-ray absorptiometry - DEXA scans (DiscoveryTM by Hologic). Total body estimates of fat and non-bone lean tissue were determined according to company supplied algorithms. Muscle thickness for Vastus lateralis and Triceps brachii lateralis was examined at the beginning and the end of study by B-mode ultrasound imaging (Toshiba PowerVision 8000) as the distance between the subcutaneous adipose tissue and inter-muscular belly interface. Total Cretine Kinase as a marker of muscle damage was performed by VITROS® 4600 (Ortho Clinical Diagnostics) at the beginning and the end of study.
# resistance trained men [3] = test: Muscle thickness by B-mode ultrasound imaging, efficacy study; format: in vivo
# Experimental: as §1, §2
# resistance trained men [4] = test: Total creatine kinase as marker of muscle damage, efficacy study; format: in vivo
# Experimental: as §1, with “During 2 months study participants were taking 30 g of post exercise amino acid blend (whey, soy and casein protein) with following profile per 100 g: • Alanine 7.1g, arginine 9.2 g, aspartic acid 6.2 g, glutamic acid 21.5 g, glycine 12.2 g, histidine 1.1 g, isoleucine 6.9 g, leucine 11.1 g, methionine 0.3 g, phenylalanine 2.7 g, proline 11.2 g, serine 2.7 g, threonine 1.5 g, tyrosine 0.5 g and valine 5.8 g.” left out
# Body composition was examined at the beginning and the end of study using dual energy x-ray absorptiometry - DEXA scans (DiscoveryTM by Hologic). Total body estimates of fat and non-bone lean tissue were determined according to company supplied algorithms. […]
# aged men = settings: treatment for 7 days; cited from earlier work
# UGT enzymes = settings: after absorption; cited from earlier work
# [5] = via orange juice alongside 150 mL yogurt; cited from earlier work
# myoblast C2C12 cells = settings: 100µM; low mitogen medium; cited from earlier work
# [6] = system: mice subjected to freeze injury (tibialis); settings: injections at 50mg/kg for six days; relative to control; cited from earlier work
# C. Elegans = settings: cited from earlier work
# [7] = biological target: human DNA topoisomerase II (topo II); settings: cited from earlier work
# PDE4 isomer = settings: cited from earlier work
# TGFβ-II receptor = TGFβ-II receptor (Homo sapiens, UniProt P37173); settings: 100µM; cited from earlier work
# Sequence of TGFβ-II receptor (P37173 23-567): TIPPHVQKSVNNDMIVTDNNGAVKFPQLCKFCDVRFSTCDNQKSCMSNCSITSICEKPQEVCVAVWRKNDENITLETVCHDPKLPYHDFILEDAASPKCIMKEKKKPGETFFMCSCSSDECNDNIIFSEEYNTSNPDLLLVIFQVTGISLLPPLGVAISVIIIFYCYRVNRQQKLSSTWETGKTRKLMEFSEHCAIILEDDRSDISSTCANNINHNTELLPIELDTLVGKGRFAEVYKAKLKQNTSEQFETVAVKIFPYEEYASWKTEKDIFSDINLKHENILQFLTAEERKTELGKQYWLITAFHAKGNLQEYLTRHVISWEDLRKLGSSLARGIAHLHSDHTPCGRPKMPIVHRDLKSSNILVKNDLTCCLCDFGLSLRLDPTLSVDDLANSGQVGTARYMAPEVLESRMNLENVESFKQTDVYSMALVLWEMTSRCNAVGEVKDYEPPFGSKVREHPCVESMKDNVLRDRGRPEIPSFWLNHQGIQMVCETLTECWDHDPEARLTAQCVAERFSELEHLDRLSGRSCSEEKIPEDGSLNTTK
# PPARγ = biological target: T1, PPARγ (Homo sapiens, UniProt P37231); settings: cited from earlier work
# T1 sequence (P37231 1-505): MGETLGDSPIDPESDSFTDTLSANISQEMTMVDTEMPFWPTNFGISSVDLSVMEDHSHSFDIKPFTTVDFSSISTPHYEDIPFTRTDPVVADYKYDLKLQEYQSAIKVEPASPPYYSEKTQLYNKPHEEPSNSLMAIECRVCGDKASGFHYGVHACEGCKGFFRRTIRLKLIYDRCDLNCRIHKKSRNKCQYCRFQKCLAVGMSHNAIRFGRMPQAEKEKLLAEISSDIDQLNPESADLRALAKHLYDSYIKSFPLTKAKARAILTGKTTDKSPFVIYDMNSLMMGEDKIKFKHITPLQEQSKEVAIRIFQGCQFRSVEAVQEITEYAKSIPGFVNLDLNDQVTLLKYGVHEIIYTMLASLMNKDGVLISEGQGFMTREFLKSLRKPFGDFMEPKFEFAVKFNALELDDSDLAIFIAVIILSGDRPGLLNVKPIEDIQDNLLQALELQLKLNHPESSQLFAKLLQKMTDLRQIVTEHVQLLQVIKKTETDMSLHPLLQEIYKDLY
# PPARα = biological target: T2, PPARα (Homo sapiens, UniProt Q07869); settings: cited from earlier work
# T2 sequence (Q07869 1-468): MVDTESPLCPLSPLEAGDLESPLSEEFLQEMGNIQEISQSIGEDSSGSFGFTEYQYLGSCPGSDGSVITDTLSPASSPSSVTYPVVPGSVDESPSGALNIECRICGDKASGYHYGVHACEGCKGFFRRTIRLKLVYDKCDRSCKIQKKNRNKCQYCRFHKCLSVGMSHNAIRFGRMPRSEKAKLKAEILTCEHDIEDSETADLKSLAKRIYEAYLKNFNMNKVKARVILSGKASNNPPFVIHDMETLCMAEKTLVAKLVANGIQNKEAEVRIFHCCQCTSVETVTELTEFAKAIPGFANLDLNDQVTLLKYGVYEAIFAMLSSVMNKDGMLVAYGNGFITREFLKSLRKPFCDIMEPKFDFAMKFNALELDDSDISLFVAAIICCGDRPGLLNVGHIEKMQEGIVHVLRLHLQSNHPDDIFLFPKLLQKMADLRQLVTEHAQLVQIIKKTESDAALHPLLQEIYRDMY
# [8] = BEGGINING of study, resistance trained men
# [9] = END of 12 week study, EPI 2x 150 mg a day, E+H+M 2x 150+100+50 mg a day
structure (smiles),measurement,setting,value
"Oc1cc(O)c2c(c1)O[C@H](c1ccc(O)c(O)c1)[C@H](O)C2 [EPI, (-)-epicatechin]",1- RM BENCH PRESS,resistance trained men [1]; [8],148±21
same,1-RM SQUAT,resistance trained men [1]; [8],153 ± 24 kg
same,1-RM SQUAT,resistance trained men [1]; [9],170 ± 22 kg
same,Body fat,[2]; [8],11.2 ± 5.3 kg
same,Body mass,[2]; [8],93.2 ± 14.6 kg
same,Lean body mass,[2]; [8],76.4 ± 5.8 kg
same,Body fat,[2]; [9],9.1 ± 4.2 kg
same,Body mass,[2]; [9],93.8 ± 10.5 kg
same,Lean body mass,[2]; [9],77.2 ± 5.8 kg
same,Triceps Brachii Lateralis thickness,resistance trained men [3]; [8],30.8±4.4 mm
same,Vastus Lateralis thickness,resistance trained men [3]; [8],23.8±3.9 mm
same,Triceps Brachii Lateralis thickness,resistance trained men [3]; [9],33.8±2.2 mm
same,Vastus Lateralis thickness,resistance trained men [3]; [9],24.6±2.9 mm
same,Total Creatine Kinase (CK reff range: 38-120 ng/ml),resistance trained men [4]; [8],86 ± 24 ng/mL
same,Total Creatine Kinase (CK reff range: 38-120 ng/ml),resistance trained men [4]; [9],73 ± 16 ng/mL
same,hand grip strength,aged men,increases
same,ratio of plasma follistatin/myostatin,aged men,increases
"COc1ccc(C2CC(=O)c3c(O)cc(OC4OC(COC5OC(C)C(O)C(O)C5O)C(O)C(O)C4O)cc3O2)cc1O (stereo not shown) [hesperidin, hesperetin-7-O-rutinoside]",found as hesperetin monoglucuronide,UGT enzymes,up to 87%
same,found as sulphoglucuronides,UGT enzymes,13%
same,reduction of Cmax of the main metabolite (hesperitin-7-O-glucuronide),[5],29%
same,reduction of overall exposure (AUC) of the main metabolite,[5],27%
same,myocyte differentiation,myoblast C2C12 cells,able to promote myocyte differentiation
same,muscle regenerative capabilities,[6],significantly enhanced
O=c1c(O)c(-c2cc(O)c(O)c(O)c2)oc2cc(O)cc(O)c12 [myricetin],prolongation of average lifespan,C. Elegans; C. Elegans,18%
same,prolongation of maximal lifespan,C. Elegans; C. Elegans,21.7%
same,increase of average lifespan,C. Elegans; mev-1(kn1) mutants,16%
same,IC50,[7],27.5 µM
"COc1ccc(C2CC(=O)c3c(O)cc(O)cc3O2)cc1O (stereo not shown) [hesperetin, 5,7,3'-trihydroxy-4'-methoxyflavanone]",IC50,PDE4 isomer,28.2 ± 1.1 µM
same,ability of a ligand to associate with the TGFβ-II receptor,TGFβ-II receptor,approximately halve
same,concentration range of concentration dependent stimulation of PPARγ activity,PPARγ,20 to 160 µM
same,concentration range of concentration dependent stimulation of PPARα activity,PPARα,20 to 160 µM
